In ChEMBL document CHEMBL6078625 (J Med Chem, 2024):
pIC50: −log10 of the molar value.

How the values were obtained:
[1] = biological target: T1, Discoidin domain-containing receptor 2 (Homo sapiens, UniProt Q16832); assay: Inhibition of human DDR2 by discoverX kinome scan assay
T1 sequence (Q16832 whole entry): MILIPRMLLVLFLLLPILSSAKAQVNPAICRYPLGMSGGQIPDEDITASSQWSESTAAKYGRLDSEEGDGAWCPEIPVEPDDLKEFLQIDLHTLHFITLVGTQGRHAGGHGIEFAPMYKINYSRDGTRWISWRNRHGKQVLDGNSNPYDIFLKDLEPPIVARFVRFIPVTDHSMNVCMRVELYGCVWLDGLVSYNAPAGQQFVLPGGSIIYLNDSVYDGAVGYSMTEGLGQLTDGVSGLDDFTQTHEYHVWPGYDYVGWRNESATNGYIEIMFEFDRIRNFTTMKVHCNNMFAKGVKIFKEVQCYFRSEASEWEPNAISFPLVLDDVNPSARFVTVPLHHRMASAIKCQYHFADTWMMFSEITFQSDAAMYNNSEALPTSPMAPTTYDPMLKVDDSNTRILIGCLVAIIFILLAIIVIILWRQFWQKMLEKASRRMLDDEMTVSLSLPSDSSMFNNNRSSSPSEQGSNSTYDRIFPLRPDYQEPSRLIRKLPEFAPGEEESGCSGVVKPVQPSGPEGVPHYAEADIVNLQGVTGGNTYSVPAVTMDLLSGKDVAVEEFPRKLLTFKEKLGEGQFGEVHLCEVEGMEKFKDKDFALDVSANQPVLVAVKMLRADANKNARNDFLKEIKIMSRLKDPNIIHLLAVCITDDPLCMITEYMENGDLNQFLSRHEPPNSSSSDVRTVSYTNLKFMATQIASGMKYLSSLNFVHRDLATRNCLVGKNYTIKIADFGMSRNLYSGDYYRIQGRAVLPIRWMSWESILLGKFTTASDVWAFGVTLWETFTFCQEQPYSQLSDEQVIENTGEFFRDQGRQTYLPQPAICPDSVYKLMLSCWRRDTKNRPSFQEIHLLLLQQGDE

[2] = biological target: Epithelial discoidin domain-containing receptor 1 (Homo sapiens, UniProt Q08345); assay: Inhibition of human DDR1 by discoverX kinome scan assay
[3] = biological target: High affinity nerve growth factor receptor (Homo sapiens, UniProt P04629); assay: Inhibition of human TRKA by discoverX kinome scan assay
[4] = biological target: T2, Muscle, skeletal receptor tyrosine-protein kinase (Homo sapiens, UniProt O15146); assay: Inhibition of human MUSK by discoverX kinome scan assay
T2 sequence (O15146 whole entry): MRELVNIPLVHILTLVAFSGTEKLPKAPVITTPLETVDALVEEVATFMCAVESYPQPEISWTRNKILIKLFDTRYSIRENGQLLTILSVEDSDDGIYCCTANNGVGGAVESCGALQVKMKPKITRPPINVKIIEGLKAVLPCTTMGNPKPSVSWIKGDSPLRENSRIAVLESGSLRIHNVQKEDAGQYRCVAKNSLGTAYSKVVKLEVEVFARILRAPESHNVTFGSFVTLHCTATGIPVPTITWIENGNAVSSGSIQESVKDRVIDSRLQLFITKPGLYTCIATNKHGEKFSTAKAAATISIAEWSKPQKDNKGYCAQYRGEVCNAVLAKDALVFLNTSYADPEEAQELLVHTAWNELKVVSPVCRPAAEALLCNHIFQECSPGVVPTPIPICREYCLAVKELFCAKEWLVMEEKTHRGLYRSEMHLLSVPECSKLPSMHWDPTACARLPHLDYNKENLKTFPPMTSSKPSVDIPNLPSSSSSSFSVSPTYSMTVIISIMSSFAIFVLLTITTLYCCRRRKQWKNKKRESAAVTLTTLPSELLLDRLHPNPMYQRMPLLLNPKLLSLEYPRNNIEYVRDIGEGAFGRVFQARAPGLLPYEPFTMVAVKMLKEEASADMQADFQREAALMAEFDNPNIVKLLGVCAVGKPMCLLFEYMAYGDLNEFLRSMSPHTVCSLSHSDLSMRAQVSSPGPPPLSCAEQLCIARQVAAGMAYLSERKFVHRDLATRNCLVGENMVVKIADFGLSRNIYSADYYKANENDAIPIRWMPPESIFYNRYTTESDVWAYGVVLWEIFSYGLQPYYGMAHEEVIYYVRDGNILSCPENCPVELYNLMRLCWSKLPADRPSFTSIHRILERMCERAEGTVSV

BaF3 [5] = assay: Antiproliferative activity against mouse BaF3 cells harbouring FLT3-ITD-F691L mutant; format: functional, cell-based
BaF3 [6] = assay: Antiproliferative activity against mouse BaF3 cells harbouring FLT3-ITD-N676D mutant; format: functional, cell-based
MV4-11 = assay: Antiproliferative activity against human MV4-11 cells; format: functional, cell-based
BaF3 [7] = assay: Antiproliferative activity against mouse BaF3 cells harbouring FLT3-ITD-D835V mutant; format: functional, cell-based
MOLM-13 = assay: Antiproliferative activity against human MOLM-13 cells; format: functional, cell-based
[8] = biological target: T3, Receptor-type tyrosine-protein kinase FLT3 (Homo sapiens, UniProt P36888); assay: Inhibition of wild type FLT3 (unknown origin)
T3 sequence (P36888 whole entry): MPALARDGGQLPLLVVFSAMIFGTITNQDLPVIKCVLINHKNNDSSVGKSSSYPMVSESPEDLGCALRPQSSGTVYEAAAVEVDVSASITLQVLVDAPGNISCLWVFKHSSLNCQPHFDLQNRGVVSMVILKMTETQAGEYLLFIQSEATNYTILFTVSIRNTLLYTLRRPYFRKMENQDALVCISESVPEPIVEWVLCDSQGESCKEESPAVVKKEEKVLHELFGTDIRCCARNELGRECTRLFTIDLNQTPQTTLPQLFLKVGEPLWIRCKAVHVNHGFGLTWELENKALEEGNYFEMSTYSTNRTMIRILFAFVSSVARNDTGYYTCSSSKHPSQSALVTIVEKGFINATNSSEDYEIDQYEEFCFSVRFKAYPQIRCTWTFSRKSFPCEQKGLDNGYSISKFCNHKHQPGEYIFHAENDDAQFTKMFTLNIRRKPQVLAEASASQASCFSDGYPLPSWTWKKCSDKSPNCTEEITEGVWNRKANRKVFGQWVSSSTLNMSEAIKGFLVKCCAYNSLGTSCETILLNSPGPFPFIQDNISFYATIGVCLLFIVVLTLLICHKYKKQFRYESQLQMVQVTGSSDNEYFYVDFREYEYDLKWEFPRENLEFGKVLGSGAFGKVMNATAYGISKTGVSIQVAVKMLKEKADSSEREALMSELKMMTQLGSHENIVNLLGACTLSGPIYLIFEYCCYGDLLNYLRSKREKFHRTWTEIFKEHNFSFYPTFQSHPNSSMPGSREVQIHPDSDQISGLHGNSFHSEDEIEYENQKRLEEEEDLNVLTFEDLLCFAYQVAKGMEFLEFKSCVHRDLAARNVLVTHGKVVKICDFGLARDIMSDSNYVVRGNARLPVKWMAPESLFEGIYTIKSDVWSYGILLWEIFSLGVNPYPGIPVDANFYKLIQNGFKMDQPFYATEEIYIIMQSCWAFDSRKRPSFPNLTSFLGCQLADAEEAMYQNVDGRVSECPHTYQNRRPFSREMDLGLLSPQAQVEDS

Sequence of High affinity nerve growth factor receptor (P04629 whole entry): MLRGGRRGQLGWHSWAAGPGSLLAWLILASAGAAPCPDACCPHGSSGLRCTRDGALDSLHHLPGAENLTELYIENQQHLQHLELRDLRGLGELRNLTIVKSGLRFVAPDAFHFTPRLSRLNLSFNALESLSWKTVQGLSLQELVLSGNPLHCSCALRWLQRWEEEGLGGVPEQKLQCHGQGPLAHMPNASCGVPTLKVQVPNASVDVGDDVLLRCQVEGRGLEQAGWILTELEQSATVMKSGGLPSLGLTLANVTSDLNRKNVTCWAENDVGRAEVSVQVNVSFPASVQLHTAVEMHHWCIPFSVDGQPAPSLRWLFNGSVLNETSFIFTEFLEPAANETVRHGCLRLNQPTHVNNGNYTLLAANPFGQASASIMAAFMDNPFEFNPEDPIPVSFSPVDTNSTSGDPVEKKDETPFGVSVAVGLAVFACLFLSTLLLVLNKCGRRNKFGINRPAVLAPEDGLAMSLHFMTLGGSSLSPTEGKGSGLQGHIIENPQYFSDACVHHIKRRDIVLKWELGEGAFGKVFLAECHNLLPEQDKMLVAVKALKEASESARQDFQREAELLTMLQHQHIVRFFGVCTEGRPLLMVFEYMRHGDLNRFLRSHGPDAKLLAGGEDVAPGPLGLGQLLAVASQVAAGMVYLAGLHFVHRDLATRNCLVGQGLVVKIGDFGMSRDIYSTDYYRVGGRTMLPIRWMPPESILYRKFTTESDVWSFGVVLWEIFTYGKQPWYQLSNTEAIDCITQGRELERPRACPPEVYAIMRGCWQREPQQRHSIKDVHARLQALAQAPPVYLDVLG
Sequence of Epithelial discoidin domain-containing receptor 1 (Q08345 whole entry, the tested form may be a part): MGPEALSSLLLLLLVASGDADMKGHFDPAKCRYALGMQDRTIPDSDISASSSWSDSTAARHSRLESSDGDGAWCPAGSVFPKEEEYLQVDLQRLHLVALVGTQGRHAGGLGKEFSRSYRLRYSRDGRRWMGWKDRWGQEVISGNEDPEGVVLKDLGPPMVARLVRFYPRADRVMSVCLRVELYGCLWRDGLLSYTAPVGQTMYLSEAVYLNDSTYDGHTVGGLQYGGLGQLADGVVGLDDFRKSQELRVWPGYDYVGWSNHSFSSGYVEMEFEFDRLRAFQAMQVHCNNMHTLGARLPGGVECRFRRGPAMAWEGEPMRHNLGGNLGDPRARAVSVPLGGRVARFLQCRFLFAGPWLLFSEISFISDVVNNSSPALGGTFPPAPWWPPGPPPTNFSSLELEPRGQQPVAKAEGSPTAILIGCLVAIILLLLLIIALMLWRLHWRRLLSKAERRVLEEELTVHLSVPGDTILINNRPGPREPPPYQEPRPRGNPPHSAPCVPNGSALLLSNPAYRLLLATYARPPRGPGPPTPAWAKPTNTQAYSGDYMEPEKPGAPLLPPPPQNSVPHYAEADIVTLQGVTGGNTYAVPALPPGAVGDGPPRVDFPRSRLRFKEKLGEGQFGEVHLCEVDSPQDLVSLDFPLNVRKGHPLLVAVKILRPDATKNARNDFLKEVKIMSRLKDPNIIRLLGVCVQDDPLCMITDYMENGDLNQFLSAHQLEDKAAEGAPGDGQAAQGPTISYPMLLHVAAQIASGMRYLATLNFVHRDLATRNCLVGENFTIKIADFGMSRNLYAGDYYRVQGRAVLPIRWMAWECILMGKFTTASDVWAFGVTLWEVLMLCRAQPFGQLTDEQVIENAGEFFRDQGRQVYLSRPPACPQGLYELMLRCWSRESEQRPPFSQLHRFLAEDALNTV

Structure (SMILES) | pIC50 [1] | pIC50 [2] | pIC50 [3] | pIC50 [4] | pIC50 (BaF3 [5]) | pIC50 (BaF3 [6]) | pIC50 (MV4-11) | pIC50 (BaF3 [7]) | pIC50 (MOLM-13) | pIC50 [8]
Cc1cc(-c2ccc(NC(=O)Nc3ccc(C(C)(C)C)cc3)cc2)c2c(N)noc2n1 | 7.01 | 7.26 | 6.95 | < 6.00 |  |  |  |  |  | 
COc1cccc(CC(=O)Nc2ccc(-c3cc(C)nc4nocc34)cc2)c1 |  |  |  |  | 5.45 | 5.94 | 7.24 | 5.07 | 6.85 | 6.99
